The record followed here is PubChem BioAssay AID588652 (The Scripps Research Institute Molecular Screening Center, 2011).

This experiment concerns the target Krueppel-like factor 5 (Homo sapiens) (UniProt Q13887). As to the kind of experiment: KLF5 protein abundance by immunoblot – western blot, chemiluminescence, HCT116 colorectal cells, counter-screen for KLF5 inhibitor project, late-stage follow-up (AID 588652). The note with it: HCT116 KLF5 protein level, 24 h, at 10 µM, hits give high values. In general terms: Immunoblotting shows a protein as a band on a membrane.

As a reminder, the inhibition is how much of the control response was suppressed.

Chain of Krueppel-like factor 5 (Homo sapiens) (Q13887 whole entry, looked up): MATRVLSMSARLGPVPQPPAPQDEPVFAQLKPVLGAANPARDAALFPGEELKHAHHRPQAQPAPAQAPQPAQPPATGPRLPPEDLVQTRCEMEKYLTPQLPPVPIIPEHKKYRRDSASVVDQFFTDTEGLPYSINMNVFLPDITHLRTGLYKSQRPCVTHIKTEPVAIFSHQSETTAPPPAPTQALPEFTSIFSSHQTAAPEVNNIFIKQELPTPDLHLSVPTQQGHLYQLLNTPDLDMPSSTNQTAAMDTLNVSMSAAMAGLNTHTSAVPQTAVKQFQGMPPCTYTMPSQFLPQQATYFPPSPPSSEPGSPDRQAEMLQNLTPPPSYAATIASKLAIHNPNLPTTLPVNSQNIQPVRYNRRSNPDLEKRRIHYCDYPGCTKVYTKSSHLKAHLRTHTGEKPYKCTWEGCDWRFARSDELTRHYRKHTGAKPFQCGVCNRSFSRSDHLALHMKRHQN

As for `CN(C(=O)COC(=O)/C=C/c1cccc([N+](=O)[O-])c1)C1CCS(=O)(=O)C1` (stereo unspecified), the inhibition is 62.6%.
